This data set can be described thus: recombinant barcode read abundance after kanamycin selection (control-corrected) (log10(CPM+1)); higher = more efficient recombination; sequences stand for … in AGTGCAGAGAAAATCGGCCAGTTTTCTCTGCCTGCAGTCCGCATGCCGT…AGATTTATGCAGCGGACTGCCTTTCTCCCAAAGTGATAAACCGGACAGTATCATGGACCGGTTTTCCCGGTAATCCGTATTTGCAAGGTTGGTTTCACT; site = the 11-nt target. Summed up: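 For this pooled screen, each oligo contained a promoter, a target, a barcode and the J23119-driven first 104 bases of the bridge RNA. Gibson cloning placed it into a vector supplying the remaining 73 bp and a T7-inducible recombinase, and the pool was co-electroporated into E. coli with a donor plasmid. Recombination efficiency is derived from barcode counts per million at recombinant junctions after averaging and control correction, and is expressed on a log scale as log10(CPM+1), with selection on chloramphenicol/ampicillin/kanamycin plus 0.1 mM IPTG against a chloramphenicol/ampicillin LB agar control.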
Consider “TGCGACCCTTGGGTTCTAACCTGTTGCTT (site TGCGACCCTAA)”, for which the “recombinant barcode read abundance (log10)” value was 1.74.

Regarding “TGCGACCCTTGGGTTCTAACCTGTTGCTT (site TGGGACCCTAT)”, the “recombinant barcode read abundance (log10)” value was 0.312.

As to “TGCGACTCTTGGGTTCTAACCTGTTGCCT (site TGAGACTCTAG)”, the “recombinant barcode read abundance (log10)” value is 1.47.

Turning to “TGCGACTCTTGGGTTCTAACCTGTTGCCT (site TGCGACTCTAG)”, the “recombinant barcode read abundance (log10)” value is 1.5.

In the case of “TGCGACTCTTGGGTTCTAACCTGTTGCCT (site TGGGACTCTAG)”, the “recombinant barcode read abundance (log10)” value turned out to be 0.0561.

In the case of “TGCGACTCTTGGGTTCTAACCTGTTGCCT (site TGTGACTCTAG)”, the “recombinant barcode read abundance (log10)” value was determined as 0.0576.

For “TGCGTAACTTGGGTTCTAACCTGTTGCCA (site GAACCTCCTAT)”, the “recombinant barcode read abundance (log10)” value was 0.0676.

For “TGCGTAACTTGGGTTCTAACCTGTTGCCA (site TGCGTAACTTG)”, the “recombinant barcode read abundance (log10)” value worked out at 0.104.

For “TGCTCTACTTGGGTTCTAACCTGTTGCTG (site TGCTCTACTCA)”, the “recombinant barcode read abundance (log10)” value was 0.00915.

Consider “TGCTCTACTTGGGTTCTAACCTGTTGCTG (site TGTTCTACTCG)”, for which the “recombinant barcode read abundance (log10)” value came to 0.114.

In the case of “TGGACTTCTTGGGTTCTAACCTGTTGCTT (site TGGAATTCTAA)”, the “recombinant barcode read abundance (log10)” value worked out at 0.0677.

“TGGACTTCTTGGGTTCTAACCTGTTGCTT (site TGGACTTCTAA)”: the “recombinant barcode read abundance (log10)” value was 0.0981.

On to “TGGAGCCCTTGGGTTCTAACCTGTTGCTT (site TGGAGCCCTAA)”, for which the “recombinant barcode read abundance (log10)” value turned out to be 0.463.

With “TGGAGCCCTTGGGTTCTAACCTGTTGCTT (site TGGAGTCCTAA)”, the “recombinant barcode read abundance (log10)” value turned out to be 0.136.

In the case of “TGGAGTACTTGGGTTCTAACCTGTTGCTT (site TGGAGTACTAA)”, the “recombinant barcode read abundance (log10)” value was 1.02.

For “TGGAGTACTTGGGTTCTAACCTGTTGCTT (site TGTAGTACTAG)”, the “recombinant barcode read abundance (log10)” value amounted to 0.0535.

With “TGGATTCCTTGGGTTCTAACCTGTTGCCT (site TGGATTCCTAG)”, the “recombinant barcode read abundance (log10)” value came to 0.223.

As for “TGGATTCCTTGGGTTCTAACCTGTTGCCT (site TGGATTGCTAG)”, the “recombinant barcode read abundance (log10)” value was 0.392.

With “TGGCAATCTTGGGTTCTAACCTGTTGCCT (site ACCTCGGCTCA)”, the “recombinant barcode read abundance (log10)” value amounted to 0.556.

Turning to “TGGCAATCTTGGGTTCTAACCTGTTGCCT (site TGGCAATCTAG)”, the “recombinant barcode read abundance (log10)” value turned out to be 0.257.

With “TGGCCCTCTTGGGTTCTAACCTGTTGCTA (site TGGCCCTCTAA)”, the “recombinant barcode read abundance (log10)” value came to 1.1.

As to “TGGCCCTCTTGGGTTCTAACCTGTTGCTA (site TGGCCCTCTCA)”, the “recombinant barcode read abundance (log10)” value turned out to be 0.0705.

As for “TGGCCCTCTTGGGTTCTAACCTGTTGCTA (site TGGCCCTCTGA)”, the “recombinant barcode read abundance (log10)” value stood at 0.0109.

Turning to “TGGCCCTCTTGGGTTCTAACCTGTTGCTA (site TGGCCCTCTTA)”, the “recombinant barcode read abundance (log10)” value was 2.03.

On to “TGGCCCTCTTGGGTTCTAACCTGTTGCTG (site TGGCCCTCTAA)”, for which the “recombinant barcode read abundance (log10)” value is 0.784.

For “TGGCCCTCTTGGGTTCTAACCTGTTGCTG (site TGGCCCTCTCA)”, the “recombinant barcode read abundance (log10)” value stood at 2.31.

Regarding “TGGCCCTCTTGGGTTCTAACCTGTTGCTG (site TGGCCCTCTGA)”, the “recombinant barcode read abundance (log10)” value stood at 0.0444.

As to “TGGCCCTCTTGGGTTCTAACCTGTTGCTG (site TGGCCCTCTTA)”, the “recombinant barcode read abundance (log10)” value was found to be 0.111.

On to “TGGCCTTCTTGGGTTCTAACCTGTTGCCT (site TAGCCTTCTAG)”, for which the “recombinant barcode read abundance (log10)” value amounted to 0.0963.

“TGGCCTTCTTGGGTTCTAACCTGTTGCCT (site TCGCCTTCTAG)”: the “recombinant barcode read abundance (log10)” value amounted to 0.0688.

For the sequence “TGGCCTTCTTGGGTTCTAACCTGTTGCCT (site TGGCCTTCTAG)”, the “recombinant barcode read abundance (log10)” value was determined as 0.781.

For the sequence “TGGCCTTCTTGGGTTCTAACCTGTTGCCT (site TTGCCTTCTAG)”, the “recombinant barcode read abundance (log10)” value was 0.0528.

As for “TGGCGAGCTTGGGTTCTAACCTGTTGCCT (site TGGCCTGCTAG)”, the “recombinant barcode read abundance (log10)” value was found to be 0.152.

For the sequence “TGGCGAGCTTGGGTTCTAACCTGTTGCCT (site TGGCGAGCTAG)”, the “recombinant barcode read abundance (log10)” value was determined as 1.02.

For the sequence “TGGCGCTCTTGGGTTCTAACCTGTTGCCT (site TGACGCTCTAG)”, the “recombinant barcode read abundance (log10)” value worked out at 0.855.

On to “TGGCGCTCTTGGGTTCTAACCTGTTGCCT (site TGCCGCTCTAG)”, for which the “recombinant barcode read abundance (log10)” value stood at 0.

Turning to “TGGCGCTCTTGGGTTCTAACCTGTTGCCT (site TGGCGCTCTAG)”, the “recombinant barcode read abundance (log10)” value is 0.457.

As for “TGGCGCTCTTGGGTTCTAACCTGTTGCCT (site TGTCGCTCTAG)”, the “recombinant barcode read abundance (log10)” value worked out at 0.0369.

For the sequence “TGGCTATCTTGGGTTCTAACCTGTTGCCT (site CGGCTATCTAG)”, the “recombinant barcode read abundance (log10)” value worked out at 0.00906.

The values are drawn from the supplement of paper PMC11208160.
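Note: IS621 recombinase and bridge RNA in Escherichia coli cells.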
